Test results: patent publication US20090042987A1, “TREATMENT OF NEUROPATHIC PAIN” (priority 2007, published 2009)
“Also recorded” adds a separate entry of the source.

Columns and labels:
STZ-diabetic rats [1] = assay: von Frey paw withdrawal thresholds, STZ-diabetic rats given multiple dosing regimens (washout protocol), Example 1; assay type: in vivo, rat
Method: Experimental Animals Ethical approval for this study was obtained from the Animal Experimentation Ethics Committee of The University of Queensland. Adult male Sprague-Dawley (SD) rats (222±4 g) were used for this study. Rats were housed in a temperature controlled room (21+2.0 C) with a 12/12 hour light/dark cycle. Food and water were available ad libitum. Initiation of drug administration occurred at 8-11 weeks post-STZ administration for rats in Experiment 1 (PCT-001) and at 10-12 weeks post-STZ administration for rats in Experiment 2 (PCT-007).
Test Article Tranilast was supplied by the Sponsor and stored at −4° C. until use. Gabapentin (100 mg/kg, dissolved in water for injection) was utilized as the positive control for this study.
Test Article and Vehicle Preparation Test article formulations were prepared freshly on the day of administration by weighing the appropriate amount of bulk powder and suspending it in the required volume of vehicle. Carboxymethyl cellulose ((CMC) 0.5% in water for injection) was utilized as the vehicle for this study.
Test Article Administration. […] The maximum oral gavage volume administered in this study was […]. 4.4
STZ-Diabetic Rat Model of Painful Diabetic Neuropathy. Painful diabetic neuropathy is a common long-term complication of diabetes in humans that develops as a result of a sustained biochemical nerve injury. […] Following the induction of diabetes with intravenous STZ at 70-80 mg/kg, it generally takes 6-8 wks for tactile allodynia, the defining symptom of PDN, to fully develop in both rat hindpaws.
Induction of STZ-Diabetes in Rats. On day 0, rats were anaesthetized with 3% isoflurane:97% O2 and a short polyethylene cannula (0.5 mm ID, 0.8 mm OD) was inserted into the jugular vein to facilitate the intravenous (i.v.) administration of a single dose of streptozotocin (STZ: 70-80 mg/kg). After STZ injection, the cannula was removed and the jugular vein was tied off and the wound was closed. Rats received subcutaneous benzylpenicillin (60 mg) prior to surgery to prevent infection and were kept warm during surgical recovery. Rats were housed singly prior to further experimentation and were monitored daily from the time of STZ administration with regard to general health and well-being.
Von Frey Assessment of Paw Withdrawal Thresholds. Calibrated von Frey filaments were used to determine the lowest mechanical threshold required to evoke a brisk paw withdrawal reflex in the rat hindpaws. Briefly, rats were transferred individually to wire mesh testing cages (20 cm×20 cm×20 cm) and allowed to acclimatize for approximately 10-20 min prior to von Frey testing. Commencing with the von Frey filament that produced the 6 g force, the filament was applied to the plantar surface of the hindpaw until the filament buckled slightly. Absence of a response after 3 s prompted use of the next filament of increasing weight. A withdrawal response within 3 s prompted use of the next filament of decreasing weight. Filaments used produced buckling weights of 2, 4, 6, 8, 10, 12, 14, 16, 18 and 20 g. […] Tactile allodynia is regarded as being fully developed when von Frey PWTs in the injured hindpaws are <6 g.
Restoring von-Frey PWTs in the hindpaws from <6 g to pre-STZ surgery levels (12±2 g) is the treatment goal representing full reversal of tactile allodynia. If drug treatment increases PWTs above pre-surgical baseline values (i.e. >12±2 g), such a response is classified as antinociception. Before administration of STZ, baseline von Frey measurements were assessed. Following STZ administration, baseline PWTs were assessed in the hindpaws at week 8-11 to confirm the development of diabetes-induced tactile allodynia. […]

STZ-diabetic rats [2] = assay: Behavioural observations / adverse effects in STZ-diabetic rats; assay type: in vivo, rat; settings: tranilast 30-400 mg/kg oral, 7 consecutive twice-daily bolus doses
Description: Behavioural Observations. STZ-diabetic rats were monitored for visible and audible signs of distress throughout the testing period. The visible signs of distress included behavioural changes such as complete immobility, movement with abnormal gait, agitation, aggression, wet dog shakes, excessive grooming, restlessness with constant movement, repeated sudden movements or staring.

With `COc1ccc(/C=C/C(=O)Nc2ccccc2C(=O)O)cc1OC` [Tranilast, 2-[[3-(3,4-dimethoxyphenyl)-1-oxo-2-propenyl]amino]benzoic acid] the “Mean (±SEM) PWT at the mean time of peak response” value (STZ-diabetic rats [1]; tranilast 300 mg/kg oral, 7th twice-daily dose, 1.5 h post-dosing) was 9.8 (±1.1) g, the “Time of peak anti-allodynia post-dosing” value (STZ-diabetic rats [1]; tranilast 300 mg/kg oral, 7th twice-daily dose, multiple dosing regimens) was 1 to 1.5 h and the “Mean (±SEM) PWT pre-dose” value (STZ-diabetic rats [1]; tranilast 300 mg/kg oral, 7th twice-daily dose, pre-dose) was 5.1 (±0.4) g. For the same molecule, the “Anti-allodynia in the hindpaws” value (STZ-diabetic rats [1]; tranilast 30, 100, 200, 300 mg/kg oral, 7 consecutive twice-daily doses, multiple dosing regimens) was “significant anti-allodynia was produced only by the 300 mg/kg dosing regimen”, the “Relief of tactile allodynia, dose dependence” value (STZ-diabetic rats [1]; tranilast 100-300 mg/kg oral, 7 consecutive twice-daily doses, up to 5 dosing regimens, 2-3 day washout) was “dose-dependent relief of tactile allodynia” and the “Adverse (behavioural) effects” value (STZ-diabetic rats [2]) was “no discernible adverse effects; also recorded: did not produce discernible adverse behavioural effects”.
